Test results from US20130236480A1, “TRANSGLUTAMINASE 2 INHIBITORS FOR USE IN THE PREVENTION OR TREATMENT OF RAPIDLY PROGRESSIVE GLOMERULONEPHRITIS” (priority 2010, published 2013).

Tested on: primary culture of mouse podocytes
Experiment: Wound assay of podocyte migration
Type: cell-based
Conditions: 100 μM MDC in DMSO, differentiated podocytes, p<0.05 vs. vehicle alone (n=3)
Method: FIG. 4: Distance of migration of differentiated podocytes within 20 h in the wound assay. A wound assay was used to assess podocyte migration. Differentiated cells were seeded in a 35 mm μ-Dish (Ibidi) forming two confluent monolayers separated by a silicon insert of 500 μm width. After 1 day, the silicon insert was removed and 100 μM of MDC (monodansylcadaverin, Sigma-Aldrich #D4008) diluted in DMSO, a TG2 inhibitor, was added or not. Cells were fixed 20 h later and the distance between the two monolayers was measured. *p<0.05 vs. vehicle alone (n=3 per condition).
In vivo podocytes are terminally differentiated and stationary cells. During crescent formation in anti-GBM GN in mice, however, podocytes assume a migratory phenotype, attach with their apical membrane onto the parietal basement membrane and start to proliferate.

## CN(C)c1cccc2c(S(=O)(=O)NCCCCCN)cccc12 [monodansylcadaverine]
  Migration of podocytes (distance of migration within 20 h in the wound assay): significantly blunted
